Measurements reported in US20240262844A1, “PYRIDINIUM SALTS AND METHODS OF USE” (UNIVERSITY OF WYOMING, priority 2023, published 2024).
Several values for one entry are separate records, joined by “and”; a condition that tells them apart may be missing. Identical values can stand only once. Counter-ions that a name gives are not always drawn.

Columns and labels:
[1] = tested on: Octreotide acetate (1 kDa); assay: Photochemical labeling of octreotide (LC/MS); type: biochemical; settings: 10 μM octreotide acetate, 100 μM pyridinium salt, 30 minutes
Description: General Procedure B: Photochemical Irradiation of Peptides and Proteins: To a 2 mL Pyrex LC/MS vial (Thermo model #03-391-39) were sequentially added solutions containing the desired biomolecule, glutathione (GSH), pyridinium salt, and ammonium acetate (NH4OAc). The resulting solution was diluted to a final volume of 500 μL and then sparged using nitrogen for a minimum of 30 minutes prior to irradiation. The actively sparging solution was then placed in an EvoluChem™ PhotoRedOx Box photoreactor that was equipped with a Kessil, PR160 427 nm LED Lamp and was then irradiated (100% lamp intensity) for the designated time at room temperature while maintaining active sparging. The resultant reaction mixture was then analyzed directly by LC/MS. Analysis of labeling outcomes using LC/MS was performed either by extracted ion chromatogram intensities (method A) or by integrating the area under the peaks associated with peptide content (method B). These values were totaled, and estimated percentages were assigned according to relative intensities of peaks or ion counts.
Labeling of Octreotide with Pyridinium Salt 2a (Octreotide-2a Conjugate). […] The resulting reaction mixture was directly analyzed by LC/MS using method A to have proceeded with 88% conversion with mono labeling. […]

[2] = tested on: HEK293T cells; assay: In-situ chemoproteomic tryptophan profiling of live HEK293T cells (peptide-level enrichment); type: cell-based, Human
Description: Cell culture and in-situ tryptophan probe treatment: Cell lines were cultured at 37° C. with 5% C02. Human embryonic kidney 293 cells expressing a mutant version of the SV40 large T antigen (HEKT293T cells) were grown in Dulbecco's Modified Eagle Medium (DMEM, Gibco) supplemented with 10% fetal bovine serum and 1% penicillin/streptomycin. For in-situ labeling, cells were grown to 90% confluence, washed with Dulbecco's phosphate buffered saline (DPBS), treated with 100x stocks of the tryptophan probes (the pyridinium salts) in OptiMem (GibCo) to generate final concentrations (0 μM, 1 μM, 10 μM, and 100 μM) in 1% dimethylsulfoxide (DMSO). Cells were incubated for 1 hour at 37° C. with 5% C02 followed by photo-activation at the respective wavelengths for 20 minutes at 4° C. Cells were harvested with a cell scraper, washed 3× with DPBS, and pellets were stored at −80° C. until further use. The following light sources were used for photo-activation: • Pyridinium salt 1a (also called, probe 1a): wavelength=302 nm; light source=Analytikjena, UVP 3UV Lamp, 8W. • Pyridinium salt 1b (also called, probe 1b): wavelength=320 nm; light source=Analytikjena, UVP 3UV Lamp, 8W, equipped with 320 nm long-pass filter. • Pyridinium salt 2b (also called, probe 2b): wavelength=440 nm; light source=Kessil PR-160L-440 nm LED, 45W. • Pyridinium salt 2d (also called, probe 2d): wavelength=440 nm; light source=Kessil PR-160L-440 nm LED, 45W.
In-situ tryptophan probe sample processing for peptide-level characterization: Cell pellets were lysed via sonication (QSonica) at 50% amplitude, 2 seconds ON, 3 seconds OFF, 30 seconds in 40 mM HEPES pH 7.5 (4-(2-hydroxyethyl)-1-piperazineethanesulfonic acid), 1.5 mM magnesium chloride (MgCl2), 1% Sodium dodecyl sulfate (SDS), 0.8% NP-40 (also known as nonyl phenoxypolyethoxylethanol), and 1x protease inhibitors (Thermo). Protein concentration was determined by BCA (Pierce). 400 μg protein lysate were taken for copper-catalyzed azide-alkyne cycloaddition (CuAAC) reactions with 100 μM of the acid cleavable DAPBS Biotin Alkyne (Click Chemistry Tools), 250 μM copper sulfate (CuSO4), 500 μM BTTP (C20H34N10O2) (Click Chemistry Tools), and 2.5 mM ascorbate and incubated for 60 minutes at R.T. Samples were precipitated with methanol:chloroform and re-suspended in 50 mM HEPES pH 8.0 containing 1% RapiGest SF (Waters). The samples were reduced with 10 mM dithiothreitol (DTT) (Pierce) and alkylated with 25 mM iodoacetamide (Pierce). The samples were diluted down to 0.1% RapiGest SF and treated with 4 μg Trypsin/LysC (Promega) at 37° C. for 16 hours. The digested peptides were than labeled with isobaric tandem mass tag (TMT) reagents (Thermo) as specified by the manufacturer. The labeled peptides were then combined, concentrated to remove acetonitrile, and re-suspended in 50 mM HEPES pH 8.0 containing 0.2% SDS. The labeled peptides were then treated with 100 μL Neutravidin resin as a 50% slurry (Peirce) for 16 hours at R.T. The following day, the Neutravidin resin was washed extensively with 50 mM HEPES pH 8.0 containing 0.2% SDS (3×), 50 mM HEPES pH 8.0 (5x), and double-distilled water (ddH2O) (5×). The bound peptides were then cleaved from the resin by incubating with 100 μL 10% formic acid for 30 minutes (2×).
Quantitative proteomics by two-dimensional nano liquid chromatography-tandem mass spectrometry (nLC-MS/MS): For protein-level characterization, the TMT-labeled sample were reconstituted in 0.1% formic acid (FA)/2% acetonitrile for offline high-pH reversed phase separation (RP10) using a Dionex UltiMate 3000 high-performance liquid chromatography (HPLC) system with fraction collection using Chromeleon v.6.8 (Thermo) software. Separation was achieved on a Waters Xbridge C18 3.5 μm 2.1×150 mm HPLC column (Waters) using a flow rate of 250 μL min-1 and the following ternary gradient and conditions: mobile phase A=water (HPLC grade), mobile phase B=acetonitrile (HPLC grade), and mobile phase C=200 mM ammonium acetate, pH 10. […]

[3] = about 100 μM probe, 60 min 37° C., 440 nm 20 min 4° C.

| Compound | conversion ([1]; 20 mM NH4OAc pH 6.9, glutathione, 427 nm LED) | degree of labeling ([1]; 427 nm) | probe concentration giving measurable two-fold enrichment of Trp-modified peptides ([2]; 440 nm photoirradiation) | number of Trp-modified peptide fragments showing dose-response behavior [2, 3] | number of unique proteins corresponding to Trp-modified peptide fragments [2, 3] | number of unique peptides harboring a tryptophan modification ([2]; chemoselectivity profile, in situ) | plasma membrane permeation ([2]; inferred from subcellular localization of labeled proteins) | thermal stability under whole cell culture conditions ([2]; no peptide enrichment without 440 nm photoirradiation) | selectivity for tryptophan, relative amino acid frequency taken into account ([2]; versus His, Tyr, Cys modifications, in situ) |
| --- | --- | --- | --- | --- | --- | --- | --- | --- | --- |
| COC(=O)N(C)[n+]1c(C)cc(-c2ccc3cc(OC)ccc3c2)cc1C [Pyridinium salt 2a, 1-((methoxycarbonyl)(methyl)amino)-4-(6-methoxynapthalen-2-yl)-2,6-dimethylpyridin-1-ium tetrafluoroborate] | 88% and 93% | mono labeling |  |  |  |  |  |  |  |
| COc1ccc2cc(-c3cc(C)[n+](N(C)C(=O)OCCCCCCN=[N+]=[N-])c(C)c3)ccc2c1 [Pyridinium salt 2d, 1-((((6-azidohexyl)oxy)carbonyl)(methyl)amino)-4-(6-methoxynaphthalen-2-yl)-2,6-dimethylpyridin-1-ium tetrafluoroborate] |  |  | about 10 μM | 290 | 209 | 221 | readily crosses the plasma membrane | robust thermal stability | about 82% |
